According to article PMC6151508, “Development of Novel Nrf2/ARE Inducers Bearing Pyrazino[2,1-a]isoquinolin Scaffold with Potent In Vitro Efficacy and Enhanced Physicochemical Properties” (Molecules : A Journal of Synthetic Chemistry and Natural …, 2017):

Assays:
[1] = test system: colorectal adenomas; parameters: method as in PMID 24053646; details: AOM-DSS mouse model; cited from earlier work
[2] = test system: heme oxygenase-1 (HO-1); parameters: method as in PMID 24053646; details: HCT116; cited from earlier work
[3] = test system: NQO1; parameters: method as in PMID 24053646; details: HCT116; cited from earlier work
[4] = test system: Nrf2; parameters: method as in PMID 24053646; details: HCT116; cited from earlier work
[5] = test system: antioxidant response element (ARE); parameters: method as in PMID 24053646; details: 10 μM, luciferase reporter assay; cited from earlier work
[6] = physchem; details: PAMPA, pH 7.4
Procedure: Then we evaluated the physicochemical properties of a selected series of our compounds. […] All of them were evaluated with pKa, partition coefficient (log D, pH 7.4), membrane permeability (Pe, pH 7.4) and water solubility. […] Permeability (Pe) was determined by a standard parallel artificial membrane permeability assay (PAMPA by pION).
Permeability (Pe) was determined by a standard parallel artificial membrane permeability assay (PAMPA by pION).

Compound | development of colorectal adenomas [1] | expression of HO-1 [2] | expression of NQO1 [3] | nuclear translocation of Nrf2 [4] | induction of ARE (previously reported) [5] | Papp [6]
O=C(/C=C1\NCC2c3ccccc3CCN2C1=O)c1ccccc1 (stereo not drawn) [Compound 1] | significantly inhibit | induce | induce | induce the nuclear translocation of Nrf2 | 26.87 fold | –
CC(C)NCC(O)COc1cccc2ccccc12 (stereo not drawn) [Propranolol] | – | – | – | – | – | 64.7 ± 8.58 ×10⁻⁶ cm/s
